According to US7884122B2, “Extended release formulation and method of treating adrenergic dysregulation” (Shionogi Pharma, Inc., priority 2007, dated 2011):
In brackets after ≈: the same amount, converted by molar mass.

Assays:
[1] = system: systolic and diastolic blood pressure; experiment: animal or person; settings: Homo sapiens, 600 h, Systolic BP vs AUCτ at Day 25, sigmoidal Emax model
Experimental: Mean baseline ABPM data for the three treatment groups were compared with mean data obtained on Day 26 (last day of treatment) and on Days 27 and 28. A more detailed PK/PD analysis was conducted by using the individual patient ABPM data to compare the blood pressure profile at Baseline and on Day 26 of treatment. The daytime (0- to 12-hour) intervals were used in the analysis, since pharmacokinetic data were collected on Day 25, over the daytime 12-hour dosing interval at steady state. In order to investigate the maintenance of effect at the tail end of the inter-dosing interval, differences between the SBP, DBP, and HR values at Baseline and the last two hours in the inter-dosing interval (Hours 11 and 12) on Day 26 were calculated for each patient. Paired t-tests were performed to test the significance of these differences between Baseline and the last two measuring times. The approach taken to quantify the effects of clonidine on blood pressure was to calculate the difference between the areas under the BP vs. time curves (AUCBP) at Baseline and on Day 26. These values were used to relate the pharmacodynamic effect to dose, as well as to conduct the PK/PD analyses.
Pharmacokinetic-pharmacodynamic modeling was conducted using the blood pressure response data and the Cmax, Cmin and AUCτ values at Day 25 of dosing. […]

[2] = traditional oral formulation of clonidine; cited from earlier work

Clc1cccc(Cl)c1N=C1NCCN1 [clonidine, 2,6-dichloro-N-2-imidazolidinylidene benzeneamine]
EC50 [1]: 4.7 ng/mL (≈ 0.0204 µM) | EC90 [1]: 6.69 ng/mL (≈ 0.0291 µM) | biological half-life [2]: about four to six hours
